What all share (format): biochemical
Assay [1] concerns the target BChE (EC 3.1.1.8) (Homo sapiens, UniProt P06276). In words: In vitro BChE inhibition assay.
In assay [2] the target is T1, MAO-A (Homo sapiens, UniProt P21397).
T1 sequence (P21397 1-527): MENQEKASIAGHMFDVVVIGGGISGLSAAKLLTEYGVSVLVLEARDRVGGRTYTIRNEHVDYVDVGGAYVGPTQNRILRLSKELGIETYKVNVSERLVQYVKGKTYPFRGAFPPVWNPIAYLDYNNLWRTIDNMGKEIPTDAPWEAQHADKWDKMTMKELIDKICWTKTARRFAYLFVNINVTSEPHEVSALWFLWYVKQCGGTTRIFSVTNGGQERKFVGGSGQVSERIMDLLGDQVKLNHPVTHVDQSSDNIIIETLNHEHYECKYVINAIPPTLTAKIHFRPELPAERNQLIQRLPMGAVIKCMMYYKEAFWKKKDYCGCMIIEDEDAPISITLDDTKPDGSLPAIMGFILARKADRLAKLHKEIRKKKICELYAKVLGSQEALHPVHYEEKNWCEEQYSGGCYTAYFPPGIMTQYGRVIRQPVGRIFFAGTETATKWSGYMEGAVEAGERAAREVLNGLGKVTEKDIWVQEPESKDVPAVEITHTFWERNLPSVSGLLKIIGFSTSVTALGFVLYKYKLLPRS
In words: In vitro MAO-A inhibition assay.

In assay [3] the target is AChE (EC Number: 3.1.1.7.) (Homo sapiens, UniProt P22303). Description: In vitro AChE inhibition assay.
AChE (EC Number: 3.1.1.7.), sequence (P22303 32-614): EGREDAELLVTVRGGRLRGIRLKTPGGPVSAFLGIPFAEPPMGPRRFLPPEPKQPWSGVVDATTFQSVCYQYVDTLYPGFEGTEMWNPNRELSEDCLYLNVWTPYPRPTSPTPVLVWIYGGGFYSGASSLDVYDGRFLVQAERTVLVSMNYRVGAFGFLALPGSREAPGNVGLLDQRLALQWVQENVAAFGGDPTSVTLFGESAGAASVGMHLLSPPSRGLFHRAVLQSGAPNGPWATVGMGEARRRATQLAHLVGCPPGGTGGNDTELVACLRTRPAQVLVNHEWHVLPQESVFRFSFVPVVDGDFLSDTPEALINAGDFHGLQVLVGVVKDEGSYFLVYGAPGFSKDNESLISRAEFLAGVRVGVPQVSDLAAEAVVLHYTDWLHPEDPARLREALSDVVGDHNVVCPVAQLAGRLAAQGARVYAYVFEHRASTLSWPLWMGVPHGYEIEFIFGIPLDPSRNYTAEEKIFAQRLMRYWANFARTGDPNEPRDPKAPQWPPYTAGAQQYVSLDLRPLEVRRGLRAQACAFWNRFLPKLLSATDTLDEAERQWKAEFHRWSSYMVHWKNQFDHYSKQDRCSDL
Assay [4] deals with T2, MAO-B (Homo sapiens, UniProt P27338).
T2 sequence (P27338 1-520): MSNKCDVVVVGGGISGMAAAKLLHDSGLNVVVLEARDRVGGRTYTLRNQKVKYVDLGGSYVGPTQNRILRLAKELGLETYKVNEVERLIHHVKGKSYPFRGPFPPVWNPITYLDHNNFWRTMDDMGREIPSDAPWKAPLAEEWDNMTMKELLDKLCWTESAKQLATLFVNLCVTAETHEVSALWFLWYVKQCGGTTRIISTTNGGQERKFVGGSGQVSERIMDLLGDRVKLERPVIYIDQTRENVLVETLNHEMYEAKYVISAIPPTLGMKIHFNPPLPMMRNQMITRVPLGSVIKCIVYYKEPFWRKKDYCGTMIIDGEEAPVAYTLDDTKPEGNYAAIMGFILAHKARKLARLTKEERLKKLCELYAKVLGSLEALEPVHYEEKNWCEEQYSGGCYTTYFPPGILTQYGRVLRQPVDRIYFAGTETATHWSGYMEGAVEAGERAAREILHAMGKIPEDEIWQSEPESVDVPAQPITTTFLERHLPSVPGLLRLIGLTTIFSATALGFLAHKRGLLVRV
In words: In vitro MAO-B inhibition assay.

Assay [5] deals with T3, Cyclooxygenase (COX-2) from human recombinant (Homo sapiens, UniProt P35354).
T3 sequence (P35354 18-604): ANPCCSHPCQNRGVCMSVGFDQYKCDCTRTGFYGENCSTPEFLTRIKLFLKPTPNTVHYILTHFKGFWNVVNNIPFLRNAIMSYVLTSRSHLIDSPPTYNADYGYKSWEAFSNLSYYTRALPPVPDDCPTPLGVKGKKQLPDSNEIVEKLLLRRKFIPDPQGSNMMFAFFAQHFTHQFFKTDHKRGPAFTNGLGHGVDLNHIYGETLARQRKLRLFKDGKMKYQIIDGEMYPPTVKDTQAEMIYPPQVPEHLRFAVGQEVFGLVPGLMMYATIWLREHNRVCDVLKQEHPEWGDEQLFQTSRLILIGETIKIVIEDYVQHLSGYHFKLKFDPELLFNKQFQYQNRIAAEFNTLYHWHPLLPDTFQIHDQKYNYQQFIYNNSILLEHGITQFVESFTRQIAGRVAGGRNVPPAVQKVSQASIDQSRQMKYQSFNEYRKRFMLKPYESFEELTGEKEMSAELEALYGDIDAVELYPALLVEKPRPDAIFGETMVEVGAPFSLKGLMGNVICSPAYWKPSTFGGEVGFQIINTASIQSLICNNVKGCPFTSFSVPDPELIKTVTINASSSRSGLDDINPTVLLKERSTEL
Description: biochemical.

Assay [6] has as its target 5-lipoxygenase (5-LOX). Description: 5-Lipoxygenase inhibitory assay. The following applies: read-out: IC50 (μM) ± SEM 5-LOX.
Where [7] appears, read: read-out: IC50 (μM) ± SEM BChE, ± SEM.
[8] abbreviates: read-out: IC50 (μM) ± SEM MAO-A, ± SEM.

Read-outs that look alike come from different tables or passages of the source.

BChE (EC 3.1.1.8), sequence (P06276 29-602, species assumed): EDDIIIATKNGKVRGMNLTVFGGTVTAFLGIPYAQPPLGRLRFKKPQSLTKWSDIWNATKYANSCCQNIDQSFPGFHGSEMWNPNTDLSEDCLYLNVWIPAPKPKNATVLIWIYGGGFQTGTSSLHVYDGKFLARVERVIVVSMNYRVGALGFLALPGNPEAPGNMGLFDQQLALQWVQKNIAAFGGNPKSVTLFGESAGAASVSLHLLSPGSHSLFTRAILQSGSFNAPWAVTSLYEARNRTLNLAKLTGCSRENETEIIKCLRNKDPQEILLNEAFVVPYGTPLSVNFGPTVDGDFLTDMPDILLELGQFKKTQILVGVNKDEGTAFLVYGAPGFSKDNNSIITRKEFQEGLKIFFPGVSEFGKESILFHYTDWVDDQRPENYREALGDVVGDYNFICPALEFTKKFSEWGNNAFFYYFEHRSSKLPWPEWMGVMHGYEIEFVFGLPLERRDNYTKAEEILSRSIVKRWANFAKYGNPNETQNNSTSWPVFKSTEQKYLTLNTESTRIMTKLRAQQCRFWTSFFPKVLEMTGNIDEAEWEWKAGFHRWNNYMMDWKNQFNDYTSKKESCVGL

The IC50 is the concentration at which inhibition is half-maximal. With “2,2′-(1-(4-(6-(2,4-Dichlorophenyl)-1,8a-dihydro-7H-[1,2,4]triazolo[3,4-b][1,3,4]thiadiazin-3-yl)phenyl)-1H-1,2,4-triazole-3,5-diyl)diphenol [Compound 25]”, the IC50 in assay [1] (setting [7]) turned out to be 1.09 ± 0.11 µM; in assay [2] (setting [8]), 0.81 ± 0.02 µM.

For the compound “3-(3-(4-(3,5-Bis(2-hydroxyphenyl)-1H-1,2,4-triazol-1-yl)phenyl)-1,8a-dihydro-7H-[1,2,4]triazolo[3,4-b][1,3,4]thiadiazin-6-yl)-3,10a-dihydro-2H-benzo[g]chromen-2-one [Compound 22]”, the values for the 50% inhibitory concentration (IC50) in assay [1] (setting [7]) and in assay [2] (setting [8]) were 10.8 ± 0.97 µM and 0.61 ± 0.07 µM, respectively.

Regarding “3-(3-(4-(3,5-Bis(2-hydroxyphenyl)-1H-1,2,4-triazol-1-yl)phenyl)-1,8a-dihydro-7H-[1,2,4]triazolo[3,4-b][1,3,4]thiadiazin-6-yl)-7-bromo-3,8a-dihydro-2H-chromen-2-one [Compound 23]”, in assay [1], the “activity against BChE, in words” value is on record as “excellent to moderate activity”. Further, the figures for the half-inhibitory concentration (IC50) in assay [1] (setting [7]) and in assay [2] (setting [8]) were 14 ± 1.11 µM and 1.32 ± 0.11 µM, respectively.

Take `O=C(O)c1ccc(-n2nc(-c3ccccc3O)nc2-c2ccccc2O)cc1` [Compound 9, deferasirox, reference compound]: the IC50 worked out at 430 ± 50 nM in assay [3]; 0.11 ± 0.005 µM in assay [1]; 10 ± 1.78 µM in assay [2]; 180 ± 10 nM in assay [4]; 4930 ± 380 nM in assay [5]; 1.28 ± 0.13 µM in assay [6]. Moreover, in assay [3], the “inhibition of AChE, in words” value was “significant inhibition”. The “activity against BChE, in words” value in assay [1] is listed as “excellent to moderate activity”. In addition, the “activity against COX-2, in words” value in assay [5] was “good to moderate activity”.

`Oc1ccccc1-c1nc(-c2ccccc2O)n(-c2ccc(-c3nnc4n3N=C(c3ccc(Cl)cc3)CS4)cc2)n1` [Compound 15, 2,2′-(1-(4-(6-(4-Chlorophenyl)-7H-[1,2,4]triazolo[3,4-b][1,3,4]thiadiazin-3-yl)phenyl)-1H-1,2,4-triazole-3,5-diyl)diphenol]: the half-inhibitory concentration (IC50) in assay [1] worked out at 3.96 ± 0.22 µM; in assay [2], 3.58 ± 0.56 µM; in assay [5] it was 75300 ± 3560 nM. Besides, the “activity against COX-2, in words” value in assay [5] is on record as “good to moderate activity”.

The values are drawn from publication PMC11694444 (RSC Advances, 2025).
